Calls of active or inactive are those of the source. No cut-off for these calls is given here.
Assays:
PC-3 = assay: Antiproliferative activity against human PC-3 cells assessed as inhibition of cell growth incubated for 48 hrs by MTT assay; assay type: functional, cell-based; details: PC-3, 48 h
MDA-MB-231 = assay: Antiproliferative activity against human MDA-MB-231 cells assessed as inhibition of cell growth incubated for 48 hrs by MTT assay; assay type: functional, cell-based; details: MDA-MB-231, 48 h
HepG2 = assay: Antiproliferative activity against human HepG2 cells assessed as inhibition of cell growth incubated for 48 hrs by MTT assay; assay type: functional, cell-based; details: HepG2, 48 h
HT-29 = assay: Antiproliferative activity against human HT-29 cells assessed as inhibition of cell growth incubated for 48 hrs by MTT assay; assay type: functional, cell-based; details: HT-29, 48 h
MCF7 [1] = assay: Antiproliferative activity against human MCF7 cells assessed as inhibition of cell growth incubated for 48 hrs by MTT assay; assay type: functional, cell-based; details: MCF7, 48 h
A549 = assay: Antiproliferative activity against human A549 cells assessed as inhibition of cell growth incubated for 48 hrs by MTT assay; assay type: functional, cell-based; details: A549, 48 h
[2] = Cytotoxicity against human L02 cells assessed as inhibition of cell growth incubated for 48 hrs by MTT assay; assay type: toxicity, cell-based
4T1 = assay: Antitumor activity against mouse 4T1 cells transplanted in BALB/c mouse assessed as tumor growth inhibition rate at 10 mg/kg, ip administered for 14 days relative to control; assay type: functional; parameters: scale not given: the % may be the effect or the level left; details: time 14 day
MCF7 [3] = assay: Induction of DNA double-strand breaks in human MCF7 cells assessed as increase in gamma-H2AX at 10 uM incubated for 48 hrs by DAPI staining based confocal laser scanning microscopy; assay type: functional, cell-based
MCF7 [4] = assay: Induction of DNA damage in human MCF7 cells at 10 uM incubated for 24 hrs by Comet assay; assay type: functional, cell-based
MCF7 [5] = assay: Induction of apoptosis in human MCF7 cells assessed as viable cells at 25 uM incubated for 24 hrs by Annexin V-FITC/Propidium Iodide staining based flow cytometry analysis (reference value: 91.8 %); assay type: functional; details: read-out: Activity
MCF7 [6] = assay: Induction of apoptosis in human MCF7 cells assessed as necrotic cells at 25 uM incubated for 24 hrs by Annexin V-FITC/Propidium Iodide staining based flow cytometry analysis (reference value: 0.082 %); assay type: functional
MCF7 [7] = assay: Induction of apoptosis in human MCF7 cells assessed as late apoptotic cells at 25 uM incubated for 24 hrs by Annexin V-FITC/Propidium Iodide staining based flow cytometry analysis (reference value: 5.58 %); assay type: functional
MCF7 [8] = assay: Induction of apoptosis in human MCF7 cells assessed as early apoptotic cells at 25 uM incubated for 24 hrs by Annexin V-FITC/Propidium Iodide staining based flow cytometry analysis (reference value: 2.54 %); assay type: functional

SMILES	IC50 (PC-3)	IC50 (MDA-MB-231)	IC50 (HepG2)	IC50 (HT-29)	IC50 (MCF7 [1])	IC50 (A549)	IC50 at 48 h [2]	Activity (4T1)	Activity (MCF7 [3])	Activity (MCF7 [4])	viability at 25 µM (MCF7 [5])	Activity (MCF7 [6])	Activity (MCF7 [7])	Activity (MCF7 [8])
COc1cccc(OC)c1/C=C/C(=O)c1nccc2c1[nH]c1ccccc12	> 10 µM	> 20 µM	> 20 µM	> 20 µM	10.5 µM	> 20 µM	> 20 µM	–	–	–	–	–	–	–
COc1ccc2[nH]c3c(C(=O)/C=C/c4ccc([N+](=O)[O-])cc4)nccc3c2c1	> 10 µM	> 20 µM	> 20 µM	> 20 µM	15.5 µM	> 20 µM	> 20 µM	–	–	–	–	–	–	–
COc1ccc2[nH]c3c(C(=O)/C=C/c4cccc(I)c4)nccc3c2c1	> 10 µM	8.71 µM	> 20 µM	2.34 µM	1.58 µM	> 20 µM	> 20 µM	–	–	–	–	–	–	–
CCc1c2c(nc3ccc(OC(=O)N4CCC(N5CCCCC5)CC4)cc13)-c1cc3c(c(=O)n1C2)COC(=O)[C@]3(O)CC [IRINOTECAN]	–	–	–	–	–	–	–	41.27%	–	–	–	–	–	–
O=C(/C=C/c1cc(F)c(F)c(F)c1)c1nccc2c1[nH]c1ccccc12	1.19 µM	2.05 µM	0.96 µM	0.89 µM	0.88 µM	5.73 µM	17.8 µM	–	–	–	–	–	–	–
COc1ccc2[nH]c3c(C(=O)/C=C/c4cc(OC)c(OC)cc4Br)nccc3c2c1	> 10 µM	> 20 µM	> 20 µM	11.3 µM	8.05 µM	4.51 µM	> 20 µM	–	–	–	–	–	–	–
O=C(/C=C/c1cccc(Br)c1)c1nccc2c1[nH]c1ccccc12	2.69 µM	6.44 µM	5.89 µM	7.24 µM	4.99 µM	11.8 µM	14.3 µM	–	–	–	–	–	–	–
O=C(/C=C/c1ccc2c(c1)OCCO2)c1nccc2c1[nH]c1ccccc12	> 10 µM	15.2 µM	13.2 µM	> 20 µM	> 20 µM	> 20 µM	> 20 µM	–	–	–	–	–	–	–
O=C(/C=C/c1ccccc1Cl)c1nccc2c1[nH]c1ccccc12	2.39 µM	3.43 µM	2.8 µM	12.5 µM	3.35 µM	5.37 µM	11.4 µM	–	–	–	–	–	–	–
COc1ccc2[nH]c3c(C(=O)/C=C/c4ccccc4Cl)nccc3c2c1	> 10 µM	1.43 µM	> 20 µM	0.52 µM	> 20 µM	> 20 µM	> 20 µM	–	–	–	–	–	–	–
COc1ccc2[nH]c3c(C(=O)/C=C/c4c(OC)cccc4OC)nccc3c2c1	> 10 µM	12 µM	7.13 µM	13.6 µM	5.71 µM	15.3 µM	> 20 µM	–	–	–	–	–	–	–
O=C(/C=C/c1ccc(Br)cc1)c1nccc2c1[nH]c1ccccc12	> 10 µM	9.21 µM	> 20 µM	9.73 µM	3.54 µM	12.2 µM	> 20 µM	–	–	–	–	–	–	–
COc1ccc2[nH]c3c(C(=O)/C=C/c4ccc(Cl)c([N+](=O)[O-])c4)nccc3c2c1	> 10 µM	2.99 µM	7.72 µM	> 20 µM	> 20 µM	5.72 µM	> 20 µM	–	–	–	–	–	–	–
O=C(/C=C/c1cc(Cl)ccc1Cl)c1nccc2c1[nH]c1ccccc12	1.4 µM	2.77 µM	3.37 µM	3.14 µM	0.59 µM	6.78 µM	9.91 µM	–	–	–	–	–	–	–
COc1ccc2[nH]c3c(C(=O)/C=C/c4ccc5c(c4)OCCO5)nccc3c2c1	3.79 µM	18.1 µM	15.6 µM	> 20 µM	14.5 µM	> 20 µM	> 20 µM	–	–	–	–	–	–	–
COc1cc(/C=C/C(=O)c2nccc3c2[nH]c2ccccc23)ccc1F	1.02 µM	3.25 µM	5.7 µM	10.9 µM	2.38 µM	3.07 µM	> 20 µM	–	–	–	–	–	–	–
CCc1ccc(/C=C/C(=O)c2nccc3c2[nH]c2ccccc23)cc1	> 10 µM	> 20 µM	> 20 µM	> 20 µM	> 20 µM	> 20 µM	> 20 µM	–	–	–	–	–	–	–

SMILES	IC50 (PC-3)	IC50 (MDA-MB-231)	IC50 (HepG2)	IC50 (HT-29)	IC50 (MCF7 [1])	IC50 (A549)	IC50 at 48 h [2]	Activity (4T1)	Activity (MCF7 [3])	Activity (MCF7 [4])	viability at 25 µM (MCF7 [5])	Activity (MCF7 [6])	Activity (MCF7 [7])	Activity (MCF7 [8])
COc1ccc2[nH]c3c(C(=O)/C=C/C=C/c4ccccc4)nccc3c2c1	> 10 µM	> 20 µM	18.9 µM	> 20 µM	17.5 µM	> 20 µM	> 20 µM	–	–	–	–	–	–	–
COc1cc(Br)c(/C=C/C(=O)c2nccc3c2[nH]c2ccccc23)cc1OC	> 10 µM	7.03 µM	9.65 µM	3.75 µM	2.21 µM	9.83 µM	> 20 µM	–	–	–	–	–	–	–
COc1ccc(/C=C/C(=O)c2nccc3c2[nH]c2ccccc23)c(OC)c1OC	> 10 µM	> 20 µM	11.6 µM	> 20 µM	> 20 µM	> 20 µM	> 20 µM	–	–	–	–	–	–	–
O=C(/C=C/c1ccc([N+](=O)[O-])cc1)c1nccc2c1[nH]c1ccccc12	> 10 µM	0.62 µM	> 20 µM	3.96 µM	5.87 µM	> 20 µM	> 20 µM	–	–	–	–	–	–	–
COc1ccc2[nH]c3c(C(=O)/C=C/c4cc(F)c(F)c(F)c4)nccc3c2c1	> 10 µM	6.52 µM	15.9 µM	2.72 µM	4.23 µM	> 20 µM	> 20 µM	–	–	–	–	–	–	–
O=C(/C=C/c1cccc(I)c1)c1nccc2c1[nH]c1ccccc12	> 10 µM	5.17 µM	> 20 µM	> 20 µM	1.6 µM	> 20 µM	> 20 µM	–	–	–	–	–	–	–
CC[C@@]1(O)C(=O)OCc2c1cc1n(c2=O)Cc2cc3ccccc3nc2-1 [CAMPTOTHECIN]	6.6 µM	0.62 µM	1.8 µM	1.87 µM	6.85 µM	7.8 µM	0.59 µM	–	Active	Active	–	–	–	–
COc1ccc2[nH]c3c(C(=O)/C=C/c4ccc(Cl)c(C)c4)nccc3c2c1	> 10 µM	6.45 µM	2.74 µM	1.89 µM	4.38 µM	7.49 µM	> 20 µM	–	–	–	–	–	–	–
COc1ccc2[nH]c3c(C(=O)/C=C/c4ccc(Br)cc4)nccc3c2c1	4.18 µM	5.67 µM	15.7 µM	7.74 µM	8.45 µM	> 20 µM	> 20 µM	–	–	–	–	–	–	–
COc1ccc2[nH]c3c(C(=O)/C=C/c4cc(Cl)ccc4Cl)nccc3c2c1	> 10 µM	8.13 µM	> 20 µM	0.68 µM	7.95 µM	> 20 µM	> 20 µM	–	–	–	–	–	–	–
COc1ccc2c(c1)[nH]c1c(C)nccc12 [HARMINE]	15.6 µM	13.2 µM	19.2 µM	12.2 µM	13.4 µM	–	9.49 µM	–	–	–	82.7%	0.055%	7.48%	9.74%
COc1ccc2[nH]c3c(C(=O)/C=C/c4c(C)cccc4C)nccc3c2c1	> 10 µM	> 20 µM	> 20 µM	> 20 µM	10.1 µM	> 20 µM	> 20 µM	–	–	–	–	–	–	–
COc1ccc2[nH]c3c(C(=O)/C=C/c4ccc(F)c(OC)c4)nccc3c2c1	0.99 µM	1.41 µM	6.33 µM	2.47 µM	0.77 µM	6.48 µM	> 20 µM	–	–	–	–	–	–	–
COc1ccc2[nH]c3c(C(=O)/C=C/c4ccc(OC)c(OC)c4OC)nccc3c2c1	> 10 µM	> 20 µM	> 20 µM	6.08 µM	6.1 µM	7.1 µM	> 20 µM	–	–	–	–	–	–	–
COc1ccc2[nH]c3c(C(=O)/C=C/c4cccc(Br)c4)nccc3c2c1	> 10 µM	> 20 µM	> 20 µM	0.49 µM	> 20 µM	> 20 µM	> 20 µM	–	–	–	–	–	–	–
COc1ccc(/C=C/C(=O)c2nccc3c2[nH]c2ccccc23)cc1	> 10 µM	> 20 µM	> 20 µM	19 µM	17.3 µM	> 20 µM	> 20 µM	–	–	–	–	–	–	–
